Data set [1] concerns the target T1, Nuclear factor erythroid 2-related factor 2 (Homo sapiens) (UniProt Q16236).
T1 sequence (whole entry): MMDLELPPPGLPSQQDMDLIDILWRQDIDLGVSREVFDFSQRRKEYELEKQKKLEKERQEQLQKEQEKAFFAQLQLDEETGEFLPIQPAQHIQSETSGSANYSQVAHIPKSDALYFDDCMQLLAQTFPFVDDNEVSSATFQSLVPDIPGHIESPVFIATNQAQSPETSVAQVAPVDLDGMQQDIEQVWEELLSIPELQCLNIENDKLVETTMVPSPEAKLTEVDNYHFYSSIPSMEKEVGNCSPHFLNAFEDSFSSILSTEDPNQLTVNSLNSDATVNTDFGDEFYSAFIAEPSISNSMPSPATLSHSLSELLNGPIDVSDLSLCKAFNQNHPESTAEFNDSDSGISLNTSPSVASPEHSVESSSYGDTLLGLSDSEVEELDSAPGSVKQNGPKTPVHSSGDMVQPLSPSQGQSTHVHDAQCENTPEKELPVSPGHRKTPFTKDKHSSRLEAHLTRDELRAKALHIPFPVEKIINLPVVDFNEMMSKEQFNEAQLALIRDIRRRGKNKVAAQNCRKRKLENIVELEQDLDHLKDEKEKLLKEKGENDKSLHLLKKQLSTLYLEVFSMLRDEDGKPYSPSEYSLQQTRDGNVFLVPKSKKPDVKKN
The note with it: Arec32, time 24.0 hrs.

A short description of data set [2]: in vitro. The note with it: PAMPA, pH 7.4. Background: In PAMPA a lipid-coated filter parts donor from acceptor wells.
Description: Permeability of compound in PBS buffer at pH 7.4 by PAMPA-BBB assay
Data set [3] deals with Hippocampal neurone. The experiment in a line: Induction of neurogenesis in C57BL/6 mouse assessed as increase in cell migration distance by confocal microscopic analysis. In kind it is functional, cell-based.
Data set [4] has as its system SH-SY5Y. Briefly: (§1) Cytotoxicity against human SH-SY5Y cells assessed as cell viability at 100 uM incubated for 24 hrs by MTT assay. The class given is toxicity, cell-based. Conditions: sh-sy5y, 24 h, 100 µM. On the technique in general: Formazan colour is commonly taken as a measure of viable cells.
The subject of data set [5] is Hippocampal neurone. Briefly: Induction of neurogenesis in C57BL/6 mouse hippocampus neurospheres assessed as upregulation of TuJ-1 by confocal microscopic analysis. The class given is functional, cell-based.
The subject of data set [6] is Hippocampus. The experiment in a line: Down regulation of okadaic acid induced p65 expression in C57BL/6J mouse hippocampus slice at 1 uM by Western blotting analysis. In kind it is functional, tissue-based. In general terms: A western blot detects proteins with antibodies after separation by electrophoresis.
Data set [7] concerns Hippocampus. Briefly: Down regulation of okadaic acid-induced inducible nitric oxide synthase expression in C57BL/6J mouse hippocampus slice at 1 uM by Western blotting analysis. The class given is functional, tissue-based.
Data set [8] can be described thus: GSH reactivity in presence glutathione-S-transferas by HPLC-MS analysis. In kind it is physicochemical.
For data set [9], the system named is Hippocampus. Briefly: Neuroprotective activity in okadaic acid-induced toxicity in C57BL/6J mouse hippocampus slice assessed reduction in ROS level at 1 uM after 6 hrs by H2DCFDA probe based fluorescence analysis. The class given is functional, tissue-based.
Data set [10] deals with Hippocampal neurone. The experiment in a line: Induction of neurogenesis in C57BL/6 mouse hippocampus neurospheres assessed as upregulation of MAP-2 by confocal microscopic analysis. The class given is functional, cell-based.
Data set [11] addresses T2, Amine oxidase [flavin-containing] B (Homo sapiens, UniProt P27338).
T2 sequence (P27338 whole entry): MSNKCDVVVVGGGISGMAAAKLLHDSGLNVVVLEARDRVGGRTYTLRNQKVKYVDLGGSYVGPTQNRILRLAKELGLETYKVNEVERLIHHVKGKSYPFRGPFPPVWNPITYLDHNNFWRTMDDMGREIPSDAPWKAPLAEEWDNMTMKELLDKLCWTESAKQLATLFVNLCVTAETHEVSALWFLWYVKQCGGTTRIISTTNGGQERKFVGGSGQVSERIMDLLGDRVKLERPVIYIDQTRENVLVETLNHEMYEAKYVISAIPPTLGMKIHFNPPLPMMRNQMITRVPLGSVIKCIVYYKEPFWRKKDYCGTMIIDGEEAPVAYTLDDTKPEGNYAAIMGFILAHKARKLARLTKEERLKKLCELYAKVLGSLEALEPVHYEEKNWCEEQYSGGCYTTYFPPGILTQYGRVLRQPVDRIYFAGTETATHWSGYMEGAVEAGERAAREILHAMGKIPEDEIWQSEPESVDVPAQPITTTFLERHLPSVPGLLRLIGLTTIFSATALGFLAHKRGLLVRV
Briefly: Inhibition of human recombinant MAO-B at 15 microM preincubated upto 30 mins using tyramine as substrate by fluorescence assay relative to control. Conditions: TDE = time-dependent effect.

Data set [12] concerns Hippocampus. The experiment in a line: Neuroprotective activity in okadaic acid-induced toxicity in C57BL/6J mouse hippocampus slice assessed cell death at 1 uM after 6 hrs by propidium iodide staining. The class given is functional, tissue-based.
The test system of data set [13] is Hippocampus. The experiment in a line: Neuroprotective activity in okadaic acid-induced toxicity in C57BL/6J mouse hippocampus slice assessed as cell viability at 1 uM measured after 6 hrs by MTT assay. The class given is functional, tissue-based.
Data set [14] has as its system Hippocampus. Briefly: Down regulation of okadaic acid induced HO-1 expression in C57BL/6J mouse hippocampus slice at 1 uM by Western blotting analysis. The class given is functional, tissue-based.
A short description of data set [15]: as §1. In kind it is toxicity, cell-based. Conditions: SH-SY5Y cells, read-out: Activity.
For data set [16], the target named is T2, Amine oxidase [flavin-containing] B. Briefly: Inhibition of human recombinant MAO-B at 2 microM preincubated upto 30 mins using tyramine as substrate by fluorescence assay relative to control. Conditions: TDE = time-dependent effect.

Calls of active or inactive are those of the source. The calls are words filed in the database; no cut-off is given here. Where only a bound is given, the exact number is not on record here.

Here are results for 19 compounds from ChEMBL document CHEMBL5046292, “Resveratrol-Based MTDLs to Stimulate Defensive and Regenerative Pathways and Block Early Events in Neurodegenerative Cascades” (J Med Chem, 2022).

In general, Papp refers to a coefficient for how fast a substance crosses the barrier. Low values mean poor permeation, high ones ready permeation. In [1], `O=c1[nH]nc(/C=C/c2cc(O)cc(O)c2)o1` returned a CD of over 60 µM. In data set [2], the Papp was at most 0.1 ×10⁻⁶ cm/s.

Regarding `C#CCn1nc(/C=C/c2ccc(OC)cc2)oc1=O`, the result in data set [3], in data set [5], in data set [6], in data set [7], in data set [9] and in data set [10] was Active. Further, the outcome in data set [12] and in data set [13] was Active. Also, the Activity entry in data set [4] was “Non-Toxic”; in data set [8] it was “Not Active”; in data set [11], “Tde”. For the same compound, the outcome in data set [14] was inactive.

Turning to `C#CCNC(=O)/C=C/c1ccc(O)cc1`, the CD in data set [1] is over 60 µM.

Take `C#CCn1nc(/C=C/c2ccccc2)oc1=O`: the viability at 24 h, 100 µM in data set [15] was 30%.

In the case of `COc1ccc(/C=C/c2n[nH]c(=O)o2)cc1`, in [1], the CD is over 60 µM.

`C#CCn1nc(/C=C/c2cccc(OC)c2)oc1=O`: the outcome in data set [3], in data set [5] and in data set [10] was Active. Besides, the Activity entry in data set [4] was “Non-Toxic”.

In [2], `COc1cc(/C=C/c2n[nH]c(=O)o2)cc(OC)c1OC` came in with a Papp of at most 0.5 ×10⁻⁶ cm/s.

For the compound `C#CCNC/C=C/c1ccc(O)c(OC)c1`, the Activity entry in data set [4] is reported as “Non-Toxic”.

In data set [1], `O=c1[nH]nc(/C=C/c2ccc3c(c2)OCO3)o1` yielded a CD of over 60 µM.

In the case of `COc1ccc(/C=C/c2n[nH]c(=O)o2)cc1OC`, the CD in data set [1] was over 60 µM.

Regarding `C#CCNC(=O)/C=C/c1ccc(O)c(OC)c1`, the CD in [1] is over 60 µM. In addition, in [2], the Papp is at most 0.5 ×10⁻⁶ cm/s.

`Oc1ccc(/C=C/c2cc(O)cc(O)c2)cc1` [RESVERATROL]: the viability at 24 h, 100 µM in data set [15] amounted to 50%.

Take `O=c1[nH]nc(/C=C/c2ccc(O)cc2)o1`: in data set [4], the Activity result is on record as “Non-Toxic”. This compound also came in with a Papp in [2] of at most 0.7 ×10⁻⁶ cm/s.

With `COc1cccc(/C=C/c2n[nH]c(=O)o2)c1`, the outcome in [3], in data set [5] and in data set [10] was Active. Besides, the CD in data set [1] is over 60 µM.

For the compound `C#CCNC(=O)/C=C/c1ccc(O)c(O)c1`, in data set [4], the Activity entry is reported as “Non-Toxic”. In data set [2], this compound gave a Papp of at most 0.4 ×10⁻⁶ cm/s.

Regarding `O=c1[nH]nc(/C=C/c2cccc(O)c2)o1`, the result in data set [3], in [5] and in data set [10] was Active. In addition, the CD in [1] is over 60 µM. Moreover, the Papp in data set [2] was at most 0.5 ×10⁻⁶ cm/s.

Take `O=c1[nH]nc(/C=C/c2ccc(O)c(O)c2)o1`: in data set [4], the Activity entry is reported as “Non-Toxic”.

On to `O=c1[nH]nc(/C=C/c2cccc([N+](=O)[O-])c2)o1`, for which the result in data set [3], in data set [5] and in data set [10] was Active. Further, the Activity entry in data set [16] is “Tde”.

With `C#CCNC(=O)/C=C/c1cccc(C#N)c1`, the CD in data set [1] is over 60 µM.
